This is an account of results in ChEMBL document CHEMBL3608252, “Dietziamides, novel tetramic acid dimers from Dietzia timorensis MZ-3 with antioxidative activity” (Bioorg Med Chem Lett, 2015).

Active and inactive are the calls of the source. No cut-off for these calls is given here.

One series deals with P388. Nature of the series: Cytotoxicity against mouse P388 cells at 0.78 to 100 uM after 4 days by MTT assay. In kind it is functional, cell-based. (In general: Tetrazolium assays rely on reduction of a dye to a coloured formazan, in cell work by metabolically active cells.)
In the next series the test system is Candida albicans. The series is described as follows: Antimicrobial activity against Candida albicans assessed as growth inhibition at 1.25 to 10 ug/disk incubated for 1 to 2 days by disk diffusion assay. Format: functional, organism-based. (In agar diffusion tests the substance spreads into inoculated agar from a disc or well.)
A further series deals with Bacillus subtilis. Nature of the series: Antimicrobial activity against Bacillus subtilis assessed as growth inhibition at 1.25 to 10 ug/disk incubated for 1 to 2 days by disk diffusion assay. Format: functional, organism-based.
Another series concerns Saccharomyces cerevisiae. Nature of the series: Antimicrobial activity against Saccharomyces cerevisiae assessed as growth inhibition at 1.25 to 10 ug/disk incubated for 1 to 2 days by disk diffusion assay. In kind it is functional, organism-based.
Series [1] is described as follows: Antioxidant activity assessed as DPPH redical scavenging activity incubated for 2 hrs in dark condition. Format: physicochemical. Background: Loss of DPPH colour is used to gauge radical scavenging.

The term IC50 denotes the midpoint of a concentration-inhibition curve. Regarding `C/C=C1\NC(=O)C(CC2=C(O)/C(=C/C)NC2=O)=C1O`, in the series with P388, the result was inactive. Further, the “growth inhibition (GI)” value in the series with Candida albicans, with Bacillus subtilis and in the series on Saccharomyces cerevisiae was “inactive” each time. The IC50 in series [1] was 34 µM.

For the compound `O=C1O[C@H]([C@@H](O)CO)C(O)=C1O` [ASCORBIC ACID], the IC50 in series [1] turned out to be 13 µM.

Turning to `C/C=C1\NC(=O)C(C(C2=C(O)/C(=C/C)NC2=O)[C@H](O)CO)=C1O` (stereo partly specified), in the series on P388, the result was inactive. The “growth inhibition (GI)” value in the series with Candida albicans, with Bacillus subtilis and in the series with Saccharomyces cerevisiae was “inactive” in each case. In addition, the IC50 in series [1] was determined as 37 µM.
